Results as given in US4507318A, “1-Aryl 2-aminomethyl cyclopropane carboxylates (Z) as drugs in the treatment of pain” (Pierre Fabre S.A., priority 1981, dated 1985).
Counter-ions that a name gives are not always drawn. Like-named read-outs stand apart in the source and are kept apart here.

Legend:
Solubility in water = assay type: physicochemical
[1] = Toxicity study (ED50 orally and intraperitoneally, method of Miller and Tainter); conditions: in vivo
Description: The most interesting compounds of the present invention were subjected to toxicity studies.
The ED50 was determined orally and intraperitoneally and calculated by the method of MILLER and TAINTER (Proc. Soc. Exper. […]. 1944, 57, 261).

mice [2] = test: Writhing Syndrome (P.B.Q.), analgesic activity after I.P. p-benzoquinone; assay type: in vivo; conditions: Mus musculus, po, P.O., read-out: Writhing Syndrome PBQ-ED50 (P.O.)
Description: (a) Writhing Syndrome (P.B.Q.)
After I.P. administration of p-benzoquinone to mice, the products were tested by the method of R. OKUN, S. C. LIDDON and L. LASAGNA, J. Pharmacol. Exptl. Therap., 1963, 139, 107. The results are expressed in ED50 in Table 1.

mice [3] = test: Hot Plate, analgesic activity; assay type: in vivo
Description: The products were tested subcutaneously in mice (50 mg/kg) by the method of N. B. EDDY and D. LEIMBACH, J. Pharm. Exptl. Therap., 1953, 107, 385.

[4] = ip, intraperitoneally, read-out: ED50 intraperitoneally
[5] = po, per os, read-out: ED50 per os

Q: With `C#CC(C)(C)NC[C@H]1C[C@]1(C(=O)OCC)c1ccccc1` (relative stereo) [Example 12, Hydrochloride of 1-phenyl 1-ethoxycarbonyl-2-(1'-1'-dimethyl-2'-propynylaminomethyl)cyclopropane (Z)] as the molecule, how does the solubility (Solubility in water) read?
A: 30 mg/mL

Q: With `CCOC(=O)[C@]1(c2ccccc2)C[C@@H]1CNCCc1ccccc1` (relative stereo) [Example 2, Hydrochloride of 1-phenyl-1-ethoxycarbonyl-2-(2-phenylethyl)amino-methyl cyclopropane (Z)] as the molecule, how does the solubility (Solubility in water) read?
A: 500 mg/mL

Q: Which results are given for `CCOC(=O)[C@]1(c2ccc(OC)cc2)C[C@@H]1CN(C)C` (relative stereo) [Example 48, Hydrochloride of 1-(p-methoxyphenyl) 1-ethoxycarbonyl 2-dimethylaminomethyl cyclopropane (Z)]?
A: LD50 [1, 4]: 110 mg/kg; LD50 [1, 5]: 420 mg/kg; ED50 (mice [2]): 95 mg/kg; Hot Plate reaction time (mice [3]; 50 mg/kg SC, mice): 29 s

Q: With `CCOC(=O)[C@]1(c2ccccc2)C[C@@H]1CN(CCO)CCO` (relative stereo) [Example 7, Maleate of 1-phenyl 1-ethoxycarbonyl 2-di(2'-hydroxyethyl)amino-methyl cyclopropane (Z)] as the molecule, how does the solubility (Solubility in water) read?
A: 500 mg/mL

Q: With `CCOC(=O)[C@]1(c2ccccc2)C[C@@H]1CNCc1ccccc1` (relative stereo) [Example 14, Hydrochloride of 1-phenyl-1-ethoxycarbonyl 2-benzyl amino methyl cyclopropane (Z)] as the molecule, how does the solubility (Solubility in water) read?
A: 10 mg/mL

Q: With `CCOC(=O)[C@]1(c2ccccc2)C[C@@H]1CNC(C)C` (relative stereo) [Example 15, Hydrochloride of 1-phenyl 1-ethoxycarbonyl 2-isopropyl aminomethyl cyclopropane (Z)] as the molecule, how does the solubility (Solubility in water) read?
A: 500 mg/mL

Q: Which solubility (Solubility in water) does the source give for `CCOC(=O)[C@]1(c2ccccc2)C[C@@H]1CN(C(C)C)C(C)C` (relative stereo) [Example 16, Maleate of 1-phenyl 1-ethoxycarbonyl 2-diisopropyl aminomethyl cyclopropane (Z)] here?
A: 100 mg/mL

Q: Which solubility (Solubility in water) does the source give for `CCOC(=O)[C@]1(c2ccccc2)C[C@@H]1CN1CCOCC1` (relative stereo) [Example 9, Hydrochloride of 1-phenyl 1-ethoxycarbonyl 2-morpholino methyl cyclopropane (Z)] here?
A: 500 mg/mL

Q: With `CCOC(=O)[C@]1(c2ccc(Cl)cc2)C[C@@H]1CN(C)C` (relative stereo) [Example 41, 1-(4'-chlorophenyl) 1-ethoxycarbonyl 2-dimethylaminomethyl cyclopropane (Z) hydrochloride] as the molecule, how does the LD50 [1, 4] read?
A: 120 mg/kg

Q: And the LD50 [1, 5]?
A: 400 mg/kg

Q: What about the ED50 (mice [2]) of the same molecule?
A: 19 mg/kg

Q: And the “Hot Plate reaction time” value (mice [3]; 50 mg/kg SC, mice)?
A: 39 s

Q: With `CCOC(=O)[C@]1(c2ccccc2)C[C@@H]1CNC` (relative stereo) [Example 3, Hydrochloride of 1-phenyl 1-ethoxycarbonyl-2-methyl amino-methyl cyclopropane (Z)] as the molecule, how does the solubility (Solubility in water) read?
A: 500 mg/mL

Q: With `CCCOC(=O)[C@]1(c2ccccc2)C[C@@H]1CN(C)C` (relative stereo) [Example 35, Fumarate of 1-phenyl 1-propyloxycarbonyl 2-dimethyl aminomethyl cyclopropane (Z)] as the molecule, how does the solubility (Solubility in water) read?
A: 150 mg/mL

Q: With `CCOC(=O)[C@]1(c2ccccc2)C[C@@H]1CN(C)CCN(C)C` (relative stereo) [Example 21, Dihydrochloride of 1-phenyl 1-ethoxycarbonyl-2-(N-methyl N-(2'-dimethylamino)ethyl)aminomethyl cyclopropane (Z)] as the molecule, how does the solubility (Solubility in water) read?
A: 500 mg/mL

Q: Which LD50 [1, 4] does the source give for `COC(=O)[C@]1(c2ccc([N+](=O)[O-])cc2)C[C@@H]1CN(C)C` (relative stereo) [Example 47, Hydrochloride of 1-(p-nitrophenyl) 1-methoxycarbonyl 2-dimethylaminomethyl cyclopropane (Z)] here?
A: 250 mg/kg

Q: What about the LD50 [1, 5] of the same molecule?
A: 1000 mg/kg

Q: And the ED50 (mice [2])?
A: 21 mg/kg

Q: What about the “Hot Plate reaction time” value (mice [3]; 50 mg/kg SC, mice) of the same molecule?
A: 20 s

Q: Which results are given for `COC(=O)[C@]1(c2ccc(N)cc2)C[C@@H]1CN(C)C` (relative stereo) [Example 46]?
A: LD50 [1, 4]: 100 mg/kg; LD50 [1, 5]: 420 mg/kg; ED50 (mice [2]): 34 mg/kg; Hot Plate reaction time (mice [3]; 50 mg/kg SC, mice): 25 s

Q: For `CCOC(=O)[C@]1(c2ccccc2)C[C@@H]1CN(CC)CC` (relative stereo) [Example 4, Hydrochloride of 1-phenyl 1-ethoxycarbonyl-2-diethyl amino-methyl cyclopropane (Z)], which solubility (Solubility in water) is on record?
A: 500 mg/mL

Q: Which solubility (Solubility in water) does the source give for `CCOC(=O)[C@]1(c2ccccc2)C[C@@H]1CN(C)Cc1ccccc1` (relative stereo) [Example 5, Hydrochloride of 1-phenyl 1-ethoxycarbonyl-2-(benzylmethylaminomethyl)cyclopropane (Z)] here?
A: 100 mg/mL

Q: Which solubility (Solubility in water) does the source give for `COC(=O)[C@]1(c2ccccc2)C[C@@H]1CN(C)C` (relative stereo) [Example 34, Hydrochloride of 1-phenyl 1-methoxycarbonyl 2-dimethyl-amino-methyl cyclopropane (Z)] here?
A: 500 mg/mL

Q: Which ED50 (mice [2]) does the source give for `CCC(=O)O[C@](Cc1ccccc1)(c1ccccc1)[C@H](C)CN(C)C` [Dextropropoxyphene, reference compound] here?
A: 30 mg/kg

Q: What about the “Hot Plate reaction time” value (mice [3]; mouse, in vivo) of the same molecule?
A: 30 s

Q: Which results are given for `CCOC(=O)[C@]1(c2cccc(Cl)c2)C[C@@H]1CN(C)C` (relative stereo) [Example 44, Maleate of 1-(m-chlorophenyl) 1-ethoxycarbonyl 2-dimethylaminomethyl cyclopropane (Z)]?
A: LD50 [1, 4]: 170 mg/kg; LD50 [1, 5]: 760 mg/kg; ED50 (mice [2]): 30 mg/kg; Hot Plate reaction time (mice [3]; 50 mg/kg SC, mice): 28 s

Q: For `CCOC(=O)[C@]1(c2ccccc2)C[C@@H]1CN1CCCC1` (relative stereo) [Example 1, 1-phenyl 1-ethoxycarbonyl-2-pyrrolidinomethyl cyclopropane hydrochloride (Z)], which solubility (Solubility in water) is on record?
A: 500 mg/mL

Q: For `CCOC(=O)[C@]1(c2ccccc2)C[C@@H]1CN(C)CCO` (relative stereo) [Example 10, Fumarate of 1-phenyl 1-ethoxycarbonyl 2-N-(2'-hydroxyethyl)N-methyl amino-methyl cyclopropane (Z)], which solubility (Solubility in water) is on record?
A: 80 mg/mL

Q: Which solubility (Solubility in water) does the source give for `CCOC(=O)[C@]1(c2ccccc2)C[C@@H]1CN(C)CC` (relative stereo) [Example 17, Fumarate of 1-phenyl 1-ethoxycarbonyl 2-(N-methyl-N-ethyl-amino)methyl cyclopropane (Z)] here?
A: 500 mg/mL

Q: Which solubility (Solubility in water) does the source give for `CCOCCNC[C@H]1C[C@]1(C(=O)OCC)c1ccccc1` (relative stereo) [Example 13, Hydrochloride of 1-phenyl 1-ethoxycarbonyl 2-(2'-ethoxyethylaminomethyl)cyclopropane (Z)] here?
A: 500 mg/mL

Q: Which solubility (Solubility in water) does the source give for `CCOC(=O)[C@]1(c2ccccc2)C[C@@H]1CN1CCN(c2ccccc2)CC1` (relative stereo) [Example 8, Dihydrochloride of 1-phenyl 1-ethoxycarbonyl 2-(4'-phenyl-piperazinomethyl)cyclopropane (Z)] here?
A: 5 mg/mL

Q: With `CCCCCN(C)C[C@H]1C[C@]1(C(=O)OCC)c1ccccc1` (relative stereo) [Example 18, Fumarate of 1-phenyl 1-ethoxycarbonyl 2-(N-methyl-N-pentylamino)methyl cyclopropane (Z)] as the molecule, how does the solubility (Solubility in water) read?
A: 30 mg/mL

Q: Which solubility (Solubility in water) does the source give for `CCOC(=O)[C@]1(c2ccccc2)C[C@@H]1CNC(C)(C)C` (relative stereo) [Example 6, Hydrochloride of 1-phenyl 1-ethoxycarbonyl-2-tertbutylamino-methyl cyclopropane (Z)] here?
A: 170 mg/mL
